In patent US20160108039A1, “TRIAZOLOPYRIDINES AS THROMBIN INHIBITORS FOR THE TREATMENT OF THROMBOEMBOLIC DISEASES” (BAYER PHARMA AKTIENGESELLSCHAFT, priority 2013, published 2016):
pIC50: −log10 of the molar value.

Legend:
thrombin [1] = molecular target: T1, thrombin (Homo sapiens, UniProt P00734); assay: Measurement of the thrombin inhibition in buffer; format: biochemical; settings: human thrombin 0.06 nmol/l in Tris buffer pH 7.4, 22° C., substrate Boc-Asp(OBzl)-Pro-Arg-AMC; in some cases means of individual determinations
Outline: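 Compound pre-incubated 15 min at 22° C with 0.06 nmol/l human thrombin in 50 mmol/l Tris, 100 mmol/l NaCl, 0.1% BSA, pH 7.4, then 5 μmol/l Boc-Asp(OBzl)-Pro-Arg-AMC added for 30 min. AMC fluorescence read at 360/460 nm against DMSO controls; IC50 from concentration–activity curves.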

thrombin [2] = molecular target: T1, thrombin; assay: Thrombin-inhibitory activity in plasma samples (ecarin-activated); format: biochemical; settings: citrate plasma, ecarin activation, fluorogenic thrombin substrate; read at about 70% of maximum signal (about 12 min); in some cases means
Outline: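 Citrate plasma prothrombin activated by ecarin (20 mU per reaction) in Ca2+-containing Hepes buffer with compound; unstimulated controls lacked ecarin. Thrombin activity followed with fluorogenic substrate (50 μmol/l final), ex 360/em 465 nm, read every minute over 20 minutes.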

pIC50 (thrombin [1])	pIC50 (thrombin [2])	Compound
7.48	7.47	COc1cc(C(=O)N2CC(C)(C)OCC2CC(C)O)cn2nc(NCc3cccc(Cl)c3)nc12 (centres unmarked) [Example 45, {2-[(3-Chlorobenzyl)amino]-8-methoxy[1,2,4]triazolo[1,5-a]pyridin-6-yl}[5-(2-hydroxypropyl)-2,2-dimethylmorpholin-4-yl]methanone]
7.74	6.91	COc1cc(C(=O)N2CC(C)(CCO)OCC2CF)cn2nc(NCc3cccc(Cl)c3)nc12 (centres unmarked) [Example 50, {2-[(3-Chlorobenzyl)amino]-8-methoxy[1,2,4]triazolo[1,5-a]pyridin-6-yl}[5-(fluoromethyl)-2-(2-hydroxyethyl)-2-methylmorpholin-4-yl]methanone]
7.44	7.41	CCC1C(=O)N2CCC2CN1C(=O)c1cc(OC)c2nc(NCc3cccc(Cl)c3)nn2c1 (centres unmarked) [Example 58, 4-({2-[(3-Chlorobenzyl)amino]-8-methoxy[1,2,4]triazolo[1,5-a]pyridin-6-yl}carbonyl)-3-ethyl-1,4-diazabicyclo[4.2.0]octan-2-one]
7.60	7.20	COc1cc(C(=O)N2CC(C)CCC2CCO)cn2nc(NCc3cccc(Cl)c3)nc12 (centres unmarked) [Example 64, {2-[(3-Chlorobenzyl)amino]-8-methoxy[1,2,4]triazolo[1,5-a]pyridin-6-yl}[2-(2-hydroxyethyl)-5-methylpiperidin-1-yl]methanone]
8.05	6.99	COc1cc(C(=O)N2CC(C)CCC2C(N)=O)cn2nc(NCc3cccc(Cl)c3)nc12 (centres unmarked) [Example 65, 1-({2-[(3-Chlorobenzyl)amino]-8-methoxy[1,2,4]triazolo[1,5-a]pyridin-6-yl}carbonyl)-5-methylpiperidine-2-carboxamide]
7.60	7.41	CC[C@@H]1COC(C)(CCO)CN1C(=O)c1cc(OC)c2nc(NCc3cccc(Cl)c3)nn2c1 (stereo partly drawn) [Example 69, {2-[(3-Chlorobenzyl)amino]-8-methoxy[1,2,4]triazolo[1,5-a]pyridin-6-yl}[(5R)-5-ethyl-2-(2-hydroxyethyl)-2-methylmorpholin-4-yl]methanone]
7.46	7.06	COCC1COC(C)(CCO)CN1C(=O)c1cc(OC)c2nc(NCc3cccc(Cl)c3)nn2c1 (centres unmarked) [Example 71, {2-[(3-Chlorobenzyl)amino]-8-methoxy[1,2,4]triazolo[1,5-a]pyridin-6-yl}[2-(2-hydroxyethyl)-5-(methoxymethyl)-2-methylmorpholin-4-yl]methanone]
